# According to patent US20250326771A1, “PIPERAZINE DERIVATIVES USEFUL IN HIV THERAPY” (VIIV HEALTHCARE COMPANY, priority 2022, published 2025):
# Like-named read-outs stand apart in the source and are kept apart here.
# How the values were obtained:
# XIAP-BIR2 = XIAP-BIR2 (Homo sapiens (Human), UniProt P98170); assay: BIR binding assay (FRET competition), XIAP BIR2; conditions: read-out: XIAP BIR2 (pIC50) (converted)
# Outline: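 Competitive TR-FRET used His-tagged XIAP-BIR2 (200 nM) and 200 nM AlexaFluor647-labelled AVPIAQKSE SMAC peptide in HEPES buffer pH 7.4 with CHAPS, glycerol and DTT, incubated 60 min before 30 min with 2 nM Eu-W1024. The 615/665 nm ratio from a 15-point, 3-fold series was fit with a four-parameter model for IC50/pIC50.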
# cIAP2-BIR3 = cIAP2-BIR3 (Homo sapiens (Human), UniProt Q13489); assay: BIR binding assay (FRET competition), cIAP2 BIR3; conditions: for cIAP2 BIR3 vs BIR2 separation window: fold separation (FS) for cIAP2
# [1] = tested on: Jurkat HIV-luciferase clones; assay: Jurkat latency reversal assay; assay type: cell-based; conditions: Homo sapiens, 48 h; Jurkat latency reversal assay potency; read-out: Jurkat pEC50 (converted)
# Outline: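 Three pooled Jurkat reporter clones, each with one or two integrated HIV-luciferase proviruses, 5,000 cells/well; duplicate 14-point titrations starting at 10 μM; 48 h, 37° C, then Steady-Glo luminescence; four-parameter logistic analysis yields EC50 and percent maximal activation against DMSO vehicle.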
# cIAP2-BIR2 = cIAP2-BIR2 (Homo sapiens (Human), UniProt Q13489); assay: BIR binding assay (FRET competition), cIAP2 BIR2
# Outline: (§1)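 615/665 nm FRET ratio. Compound, His-domain and 200 nM AF647-SMAC peptide incubated 60 min, then 2 nM Eu-W1024 for 30 min. Domains: cIAP1-BIR3 50 nM; XIAP-BIR3 100 nM; cIAP1-BIR2, cIAP2-BIR2 325 nM each. 15-pt 3-fold series; variable-slope IC50.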
# XIAP-BIR3 = XIAP-BIR3 (Homo sapiens (Human), UniProt P98170); assay: BIR binding assay (FRET competition), XIAP BIR3; conditions: for XIAP BIR3 vs BIR2 separation window: fold separation (FS) for XIAP
# Outline: as §1
# cIAP1-BIR3 = cIAP1-BIR3 (Homo sapiens (Human), UniProt Q13490); assay: BIR binding assay (FRET competition), cIAP1 BIR3; conditions: for cIAP1 BIR3 vs BIR2 separation window: fold separation (FS) for cIAP1
# Outline: as §1
# cIAP1-BIR2 = cIAP1-BIR2 (Homo sapiens (Human), UniProt Q13490); assay: BIR binding assay (FRET competition), cIAP1 BIR2
# Outline: as §1
# Sequence of cIAP2-BIR2 (Q13489 158-242): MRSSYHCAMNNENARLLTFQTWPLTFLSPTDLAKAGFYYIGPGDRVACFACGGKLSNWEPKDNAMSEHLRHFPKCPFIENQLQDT
# Sequence of XIAP-BIR3 (P98170 241-356): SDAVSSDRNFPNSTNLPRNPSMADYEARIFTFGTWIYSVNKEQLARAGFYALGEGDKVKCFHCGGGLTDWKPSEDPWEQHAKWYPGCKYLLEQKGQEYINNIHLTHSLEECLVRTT
# Sequence of XIAP-BIR2 (P98170 124-240): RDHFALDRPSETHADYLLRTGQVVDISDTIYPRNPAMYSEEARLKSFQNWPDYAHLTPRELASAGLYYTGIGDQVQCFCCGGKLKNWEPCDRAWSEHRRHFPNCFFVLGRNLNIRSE
# Sequence of cIAP1-BIR2 (Q13490 173-257): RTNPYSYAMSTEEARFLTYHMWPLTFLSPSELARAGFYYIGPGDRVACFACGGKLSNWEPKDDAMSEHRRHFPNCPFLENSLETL
# Sequence of cIAP2-BIR3 (Q13489 238-349): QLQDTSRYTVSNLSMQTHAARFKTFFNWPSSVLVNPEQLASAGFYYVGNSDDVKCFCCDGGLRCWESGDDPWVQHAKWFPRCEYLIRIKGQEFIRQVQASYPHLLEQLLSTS
# Sequence of cIAP1-BIR3 (Q13490 253-363): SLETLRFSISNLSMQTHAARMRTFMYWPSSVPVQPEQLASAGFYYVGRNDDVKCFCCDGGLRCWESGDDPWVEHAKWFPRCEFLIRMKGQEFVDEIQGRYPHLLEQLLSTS
smiles,measurement,setting,value
"C[C@@H]1CN(CC(=O)N2CC(C)(C)c3[nH]c(=O)c(Cc4ccc(F)cc4)cc32)[C@@H](CN2CCC(CN(C)C(=O)Cc3ccc(CC(=O)N(C)CC4CCN(C[C@H]5CN[C@H](C)CN5CC(=O)N5CC(C)(C)c6[nH]c(=O)c(Cc7ccc(F)cc7)cc65)CC4)cc3)CC2)CN1 [Example 99, 2,2′-(1,4-phenylene)bis(N-((1-(((2R,5R)-1-(2-(6-(4-fluorobenzyl)-3,3-dimethyl-5-oxo-2,3,4,5-tetrahydro-1H-pyrrolo[3,2-b]pyridin-1-yl)-2-oxoethyl)-5-methylpiperazin-2-yl)methyl)piperidin-4-yl)methyl)-N-methylacetamide)]",IC50,XIAP-BIR2; FRET competition binding,10000 to 51300 nM
same,IC50,cIAP2-BIR3,7.94 to 15.8 nM
same,cIAP2 BIR3 vs BIR2 separation window,cIAP2-BIR3,"+++ (10,000>FS>1,000)"
same,EC50,[1],63.1 to 316 nM
same,IC50,cIAP2-BIR2,3160 to 10000 nM
same,IC50,XIAP-BIR3,7.94 to 15.8 nM
same,XIAP BIR3 vs BIR2 separation window,XIAP-BIR3,"++++ (FS>10,000)"
same,IC50,cIAP1-BIR3,1.38 to 7.94 nM
same,cIAP1 BIR3 vs BIR2 separation window,cIAP1-BIR3,"+++ (10,000>FS>1,000)"
same,IC50,cIAP1-BIR2,3160 to 10000 nM
"C[C@@H]1CN(CC(=O)N2CC(C)(C)c3[nH]c(=O)c(Cc4ccc(F)cc4)cc32)[C@@H](CN2CCO[C@H](C(=O)NCCCN(C)C(=O)[C@@H]3CN(C[C@H]4CN[C@H](C)CN4CC(=O)N4CC(C)(C)c5[nH]c(=O)c(Cc6ccc(F)cc6)cc54)CCO3)C2)CN1 [Compound 135, (S)-4-(((2R,5R)-1-(2-(6-(4-fluorobenzyl)-3,3-dimethyl-5-oxo-2,3,4,5-tetrahydro-1H-pyrrolo[3,2-b]pyridin-1-yl)-2-oxoethyl)-5-methylpiperazin-2-yl)methyl)-N-(3-((S)-4-(((2R,5R)-1-(2-(6-(4-fluorobenzyl)-3,3-dimethyl-5-oxo-2,3,4,5-tetrahydro-1H-pyrrolo[3,2-b]pyridin-1-yl)-2-oxoethyl)-5-methylpiperazin-2-yl)methyl)morpholine-2-carboxamido)propyl)-N-methylmorpholine-2-carboxamide]",IC50,XIAP-BIR2; FRET competition,10000 to 51300 nM
same,IC50,cIAP2-BIR3,7.94 to 15.8 nM
same,cIAP2 BIR3 vs BIR2 separation window,cIAP2-BIR3,"+++ (10,000>FS>1,000)"
same,EC50,[1],63.1 to 316 nM
same,IC50,cIAP2-BIR2,3160 to 10000 nM
same,IC50,XIAP-BIR3,15.8 to 31.6 nM
same,XIAP BIR3 vs BIR2 separation window,XIAP-BIR3,"++++ (FS>10,000)"
same,IC50,cIAP1-BIR3,15.8 to 31.6 nM
same,cIAP1 BIR3 vs BIR2 separation window,cIAP1-BIR3,"+++ (10,000>FS>1,000)"
same,IC50,cIAP1-BIR2,3160 to 10000 nM
"C[C@@H]1CN(CC(=O)N2CC(C)(C)c3[nH]c(=O)c(Cc4ccc(F)cc4)cc32)[C@@H](CN2CCO[C@H](COCc3cccc(COC[C@@H]4CN(C[C@H]5CN[C@H](C)CN5CC(=O)N5CC(C)(C)c6[nH]c(=O)c(Cc7ccc(F)cc7)cc65)CCO4)n3)C2)CN1 [Example 84, 1,1′-(2,2′-((3R,3′R,6R,6′R)-(((2S,2'S)-(((pyridine-2,6-diylbis(methylene))bis(oxy))bis(methylene))bis(morpholine-2,4-diyl))bis(methylene))bis(3-methylpiperazine-6,1-diyl))bis(acetyl))bis(6-(4-fluorobenzyl)-3,3-dimethyl-1,2,3,4-tetrahydro-5H-pyrrolo[3,2-b]pyridin-5-one)]",IC50,XIAP-BIR2; FRET competition binding,10000 to 51300 nM
same,IC50,cIAP2-BIR3,7.94 to 15.8 nM
same,cIAP2 BIR3 vs BIR2 separation window,cIAP2-BIR3,"+++ (10,000>FS>1,000)"
same,EC50,[1],0.49 to 12.6 nM
same,IC50,cIAP2-BIR2,3160 to 10000 nM
same,IC50,XIAP-BIR3,15.8 to 31.6 nM
same,XIAP BIR3 vs BIR2 separation window,XIAP-BIR3,"++++ (FS>10,000)"
same,IC50,cIAP1-BIR3,7.94 to 15.8 nM
same,cIAP1 BIR3 vs BIR2 separation window,cIAP1-BIR3,"+++ (10,000>FS>1,000)"
same,IC50,cIAP1-BIR2,1000 to 3160 nM
"C[C@@H]1CN(CC(=O)N2CC(C)(C)c3[nH]c(=O)c(Cc4ccc(F)cc4)cc32)[C@@H](CN2CCO[C@H](C(=O)N(C)CC3CCN(C(=O)[C@@H]4CN(C[C@H]5CN[C@H](C)CN5CC(=O)N5CC(C)(C)c6[nH]c(=O)c(Cc7ccc(F)cc7)cc65)CCO4)CC3)C2)CN1 [Example 132, (S)-4-(((2R,5R)-1-(2-(6-(4-fluorobenzyl)-3,3-dimethyl-5-oxo-2,3,4,5-tetrahydro-1H-pyrrolo[3,2-b]pyridin-1-yl)-2-oxoethyl)-5-methylpiperazin-2-yl)methyl)-N-((1-((S)-4-(((2R,5R)-1-(2-(6-(4-fluorobenzyl)-3,3-dimethyl-5-oxo-2,3,4,5-tetrahydro-1H-pyrrolo[3,2-b]pyridin-1-yl)-2-oxoethyl)-5-methylpiperazin-2-yl)methyl)morpholine-2-carbonyl)piperidin-4-yl)methyl)-N-methylmorpholine-2-carboxamide]",IC50,XIAP-BIR2; FRET competition binding,10000 to 51300 nM
same,IC50,cIAP2-BIR3,7.94 to 15.8 nM
same,cIAP2 BIR3 vs BIR2 separation window,cIAP2-BIR3,"+++ (10,000>FS>1,000)"
same,EC50,[1],12.6 to 63.1 nM
same,IC50,cIAP2-BIR2,1000 to 3160 nM
same,IC50,XIAP-BIR3,15.8 to 31.6 nM
same,XIAP BIR3 vs BIR2 separation window,XIAP-BIR3,"++++ (FS>10,000)"
same,IC50,cIAP1-BIR3,7.94 to 15.8 nM
same,cIAP1 BIR3 vs BIR2 separation window,cIAP1-BIR3,"+++ (10,000>FS>1,000)"
same,IC50,cIAP1-BIR2,3160 to 10000 nM
